Consider eight compounds from PubChem BioAssay (NCI).

Molecules are shown by their SMILES.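 In this assay, cells in 96-well plates receive the compound at five concentrations for 48 hours. Endpoints are linearly interpolated between the surrounding concentrations. TGI marks complete inhibition of growth.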

Test systems include A498 renal; A549 NSCLC; ACHN renal; EKVX NSCLC; K-562 leukemia; KM12 colon; LOX IMVI melanoma; MOLT-4 leukemia; NCI/ADR-RES ovarian; OVCAR-3 ovarian; OVCAR-5 ovarian; PC-3 prostate; RPMI-8226 leukemia; SF-268 CNS; U251 CNS; UACC-257 melanoma; UO-31 renal; SNB-75 CNS.
Holding throughout (test): inhibition of tumour cell growth, NCI panel, 48 h

Regarding `O=C1CSC(c2ccccc2)N1c1ccc(-c2ccc(-n3c(-c4ccccc4)nc4ccccc4c3=O)cc2)cc1` (stereo not given), the TGI in the experiment on A498 renal, in the experiment with A549 NSCLC, in the experiment on ACHN renal, with EKVX NSCLC, in the experiment on K-562 leukemia and in the experiment with KM12 colon was over 100 µM in each case. The TGI with LOX IMVI melanoma, in the experiment on MOLT-4 leukemia, with NCI/ADR-RES ovarian, in the experiment with OVCAR-3 ovarian, in the experiment with OVCAR-5 ovarian and with PC-3 prostate was over 100 µM in each case. For the same compound, the TGI with RPMI-8226 leukemia, in the experiment on SF-268 CNS, in the experiment with U251 CNS, with UACC-257 melanoma and in the experiment with UO-31 renal was over 100 µM in each case.
For the compound `COc1nc(=O)[nH]c2c1C(c1ccc([N+](=O)[O-])cc1)c1c(OC)nc(=O)[nH]c1O2`, the TGI in the experiment with A498 renal, in the experiment with A549 NSCLC, in the experiment on ACHN renal, in the experiment with EKVX NSCLC, in the experiment on KM12 colon and in the experiment with MOLT-4 leukemia was over 100 µM each time. Further, the TGI in the experiment on NCI/ADR-RES ovarian, with OVCAR-3 ovarian, in the experiment on OVCAR-5 ovarian, in the experiment with PC-3 prostate, with RPMI-8226 leukemia and in the experiment with SF-268 CNS was over 100 µM throughout. For the same compound, the TGI in the experiment with U251 CNS, in the experiment with UACC-257 melanoma and in the experiment with UO-31 renal was over 100 µM in each case.
For `C=C1N(C)c2ccc(S(=O)(=O)c3ccc4c(c3)C(C)(C)C(=C)N4C)cc2C1(C)C`, the TGI with A498 renal is over 100 µM; in the experiment with A549 NSCLC, over 100 µM; with ACHN renal it was over 100 µM; in the experiment on EKVX NSCLC, over 100 µM; with KM12 colon it was over 100 µM; with MOLT-4 leukemia, 91.7 µM. Also, the TGI in the experiment on NCI/ADR-RES ovarian is over 100 µM; with OVCAR-3 ovarian, over 100 µM; with OVCAR-5 ovarian, over 100 µM; with PC-3 prostate, over 100 µM; in the experiment on RPMI-8226 leukemia it was 35.5 µM; in the experiment with SF-268 CNS, over 100 µM. The TGI with SNB-75 CNS was 62.7 µM; with U251 CNS, over 100 µM; in the experiment with UACC-257 melanoma, over 100 µM; in the experiment with UO-31 renal, over 100 µM.
Turning to `Cc1nc(C)c(N2CCN(Cc3ccccc3)CC2)c(=O)[nH]1`, the TGI with A498 renal, in the experiment on A549 NSCLC, in the experiment on ACHN renal, in the experiment with EKVX NSCLC, in the experiment with K-562 leukemia and in the experiment with KM12 colon was over 100 µM throughout. Also, the TGI in the experiment on LOX IMVI melanoma, in the experiment with MOLT-4 leukemia, with NCI/ADR-RES ovarian, in the experiment on OVCAR-3 ovarian, in the experiment on PC-3 prostate and in the experiment with RPMI-8226 leukemia was over 100 µM in each case. Moreover, the TGI in the experiment on SF-268 CNS, in the experiment with U251 CNS, with UACC-257 melanoma and in the experiment on UO-31 renal was over 100 µM throughout.
As for `Cc1cn(CC(=S)NCCc2c[nH]c3ccccc23)c(=O)[nH]c1=O`, the TGI in the experiment on A498 renal, in the experiment with A549 NSCLC, in the experiment on ACHN renal, in the experiment on EKVX NSCLC, in the experiment with K-562 leukemia and in the experiment with KM12 colon was over 100 µM each time. The TGI in the experiment on LOX IMVI melanoma, in the experiment on MOLT-4 leukemia, with NCI/ADR-RES ovarian, in the experiment on OVCAR-3 ovarian, in the experiment with OVCAR-5 ovarian and with PC-3 prostate was over 100 µM throughout. The TGI in the experiment on RPMI-8226 leukemia, with SF-268 CNS, in the experiment with U251 CNS and with UO-31 renal was over 100 µM in each case.
In the case of `COc1cc(-c2nc(N)c(C#N)c3c2CCS(=O)(=O)c2ccc(C)cc2-3)cc(OC)c1OC`, the TGI with A498 renal is 69.8 µM; with A549 NSCLC it was over 100 µM; with ACHN renal, over 100 µM; in the experiment with K-562 leukemia, over 100 µM; in the experiment with KM12 colon, over 100 µM; in the experiment with LOX IMVI melanoma it was over 100 µM. The TGI in the experiment with NCI/ADR-RES ovarian, in the experiment with OVCAR-3 ovarian, with OVCAR-5 ovarian, in the experiment on PC-3 prostate, in the experiment on RPMI-8226 leukemia and in the experiment with SF-268 CNS was over 100 µM each time. The TGI is 75.9 µM in the experiment with SNB-75 CNS, over 100 µM with U251 CNS, over 100 µM with UACC-257 melanoma and over 100 µM in the experiment on UO-31 renal.
On to `Nc1ccc(Oc2ccc(C34CC5C6CC7(c8ccc(Oc9ccc(N)cc9)cc8)CC5C(C3)C(C7)C6C4)cc2)cc1`, for which the TGI in the experiment on A498 renal, with A549 NSCLC, in the experiment with ACHN renal, in the experiment with EKVX NSCLC, in the experiment on K-562 leukemia and in the experiment with KM12 colon was over 100 µM each time. The TGI in the experiment on LOX IMVI melanoma, with MOLT-4 leukemia, in the experiment on NCI/ADR-RES ovarian, in the experiment with OVCAR-3 ovarian, in the experiment on OVCAR-5 ovarian and in the experiment on PC-3 prostate was over 100 µM each time. Further, the TGI in the experiment on RPMI-8226 leukemia, in the experiment on SF-268 CNS, with U251 CNS, with UACC-257 melanoma and with UO-31 renal was over 100 µM in each case.
For `Nc1c(F)c(F)c2c(c1F)N(CCCCCl)c1ccccc1S2`, the TGI with A498 renal, in the experiment on A549 NSCLC, in the experiment with ACHN renal, in the experiment on K-562 leukemia, in the experiment on KM12 colon and in the experiment on LOX IMVI melanoma was over 100 µM in each case. For the same compound, the TGI in the experiment on MOLT-4 leukemia, in the experiment with NCI/ADR-RES ovarian, in the experiment with OVCAR-3 ovarian, with OVCAR-5 ovarian, in the experiment with PC-3 prostate and in the experiment with RPMI-8226 leukemia was over 100 µM throughout. The TGI in the experiment on SF-268 CNS, in the experiment on SNB-75 CNS, in the experiment on U251 CNS, in the experiment on UACC-257 melanoma and with UO-31 renal was over 100 µM in each case.
